One assay concerns HIV. Particulars: cited from earlier work.
Assay [1] deals with T1, viral reverse transcriptase (Human immunodeficiency virus type 1 group M subtype B, UniProt P04585).
T1 construct: Viral reverse transcriptase is found in extracts from bacterial clones; made in house; host or cells: Escherichia coli (extracts of bacterial clones, by the procedure of Larder et al., EMBO J. 6:3133-3137, 1987)
In words: Viral reverse transcriptase inhibition, cell free assay. Particulars: read-out: RT % INHIBITION (100 μM), 100 μM; poly rC or poly rG template. Type of assay: biochemical, human immunodeficiency virus (HIV-1). In a few lines:
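E. coli-expressed HIV-1 RT extract was incubated with inhibitor, 10 μM [35S]-dNTP, poly rC/rG template and oligo dG/dT primer in Tris pH 8.3 with Mg2+ at 37 °C (30 min; 15 min in an alternative version). DNA incorporation was counted on filters and reported as % inhibition (at 100 μM in one version) and IC50.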

For assay [2], the system named is HIV-1 (MT-2 cells infected with HIV-1). In words: Inhibition of HIV-induced syncytia formation in MT-2 cells. The format is cell-based. Particulars: Human immunodeficiency virus 1, MT2; MT-2 cells infected with HIV-1; read-out: INHIBITION OF SYNCYTIA FORMATION ED50. The source says:
This test is described in Quantitative Infectivity Assay for HIV-1 and -2., Nature 332: 469-470, 1988 as well as in AIDS RESEARCH AND HUMAN RETROVIRUSES, Vol. 4, No. 6, pages 449-455 (1988), Mary Ann Liebent, Inc., Publishers; in an article entitled "Nucleotide Dimers Suppress HIV Expression In VITRO". The results (IC50 means the concentration, in μM of drug, required to inhibit syncytia formation to the extent of 50%) of various assay(s) are combined and reported as % inhibition and IC50 (calculated).
ability of various compounds used to inhibit HIVinduced syncytia formatio
in a tissue culture assay using MT2 cells infected with HIV1. This test i
described by Nara et al., Quantitative infectivity assay for HIV1 and 2,
Nature 332, 469-470 (1988), as well as in AIDS RESEARCH AND HUMAN
RETROVIRUSES, vol. 4, No. 6, pages 449-455 (1988), Mary Ann Liebent, Inc.
Publishers, and in an article by Mariano Busso, et al., entitled
"Nucleotide Dimers Suppress HIV Expression In Vitro". The results
(ED50 means the concentration, in μM of drug, required to inhibit
syncytia formation to the extent of 50%) of various assay are combined an
reported in Table I. In comparison, the known commercial compound, AZT,
percent reductions in syncytia formation at concentrations of
approximately 1 μM and 0.5 μM, respectively.

In assay [3] the test system is HIV in primary human peripheral blood lymphocytes. Nature of the assay: Primary PBL assay: inhibition of viral replication (p24 & RNA). The format is cell-based. Particulars: Human immunodeficiency virus 1, Lymphocyte, primary human lymphocytes infected with HIV, days three and four, read-out: PBL INHIBITION OF VIRAL REPLICATION (p24 & RNA) ED50. In a few lines: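 Mitogen-stimulated human PBLs infected with standardized HIV, cultured with drug 4 days at one tenth of the antiproliferative half-maximal concentration. Secreted p24 by capture-ELISA and total HIV RNA by hybridization on days 3 and 4, with viability in parallel; ED50 is the concentration giving 50% reduction in p24.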

In the case of `Nc1ccn([C@H]2CC[C@@H](CO)O2)c(=O)n1` [ddC], the “activity against HIV in vitro” value in the assay with HIV was “potent activity”.

By inhibition is commonly meant the share of the control response that was lost under treatment. Regarding `CC(C)Nc1cccnc1N1CCN(Cc2cc3cc(F)ccc3[nH]2)CC1` [Example 32, 1-[5-Fluoroindolyl-2-methyl]-4-[3-(1-methylethylamino)-2-pyridinyl]piperazine], the inhibition at 100 µM in assay [1] came out at 96%. The IC50 in assay [2] was less than 300 nM. Also, the EC50 in assay [3] was in the range of 3 to 10 nM.

Take `CCNc1cccnc1N1CCN(C(=O)c2cc3cc(CC)ccc3[nH]2)CC1` [Example 24, 1-[5-Ethylindolyl-2-carbonyl]-4-[3-(ethylamino)-2-pyridinyl]piperazine]: the inhibition at 100 µM in assay [1] was in the range of 65 to 70%. Further, the IC50 in assay [2] was found to be 16000 nM. Also, in assay [3], the EC50 was 10 to 100 nM.

As to `CC(C)Nc1cccnc1N1CCN(C(=O)c2cc3cc(F)ccc3[nH]2)CC1` [Example 25, 1-[5-Fluoroindolyl-2-carbonyl]-4-[3-(1-methylethylamino)-2-pyridinyl]piperazine], in assay [1], the inhibition at 100 µM worked out at 96%. The IC50 in assay [2] fell in the range of 300 to 400 nM. Besides, the EC50 in assay [3] amounted to 3 nM.

As for `O=c1[nH]cnc2c1ncn2[C@H]1CC[C@@H](CO)O1` [ddI], in the assay on HIV, the “activity against HIV in vitro” value is listed as “potent activity”.
